Data on six compounds can be found in ChEMBL document CHEMBL1141459, “Kv7 (KCNQ) channel modulators and neuropathic pain” (J Med Chem, 2007).

What is called ED50 is the midpoint of the dose-response relation. A high value points to weaker potency. In general, EC50 refers to the concentration needed to bring the measured effect to its halfway point. The low end stands for higher potency in that assay, the high end for lower potency in that assay.

The subject of data set [1] is Rattus norvegicus. Kind of data set: Analgesic activity in formalin-induced pain hypersensitivity in po dosed rat. Type of data set: functional.
In data set [2] the test system is Rattus norvegicus. Kind of data set: Analgesic activity in CCI and SNL nerve injury in po dosed rat model of pain. It is filed as functional. Particulars: read-out: MED.
A short description of data set [3]: Activity at Kv.7 channel expressed in cloned CHO cells by patch clamp method. It is filed as cell-based. A general note: Patch clamp records ionic current or voltage across a cell membrane.
Data set [4] deals with Potassium voltage-gated channel subfamily KQT member 2 (Homo sapiens, UniProt O43526). Kind of data set: Activity at Kv 7.2 channel expressed in cloned CHO cells by [86Rb] efflux assay. Type of data set: cell-based.
The species named for data set [5] is Rattus norvegicus. Kind of data set: Toxicity in rat by rotarod test. The settings on record: in vivo. Type of data set: organism-based. A general note: Falling from the rotarod earlier than controls is read as motor impairment.
A short description of data set [6]: Therapeutic index, ratio of ED50 in rotor rod test in rat to ED50 in rat kindling model of epileptic seizures. Particulars: read-out: TI.
Data set [7] can be described thus: Therapeutic index, ratio of ED50 in rotor rod test in rat to ED50 in rat spinal nerve ligation model of neuropathic pain. Particulars: in vivo, read-out: TI. It is filed as organism-based.
Data set [8] relates to Rattus norvegicus. Kind of data set: Analgesic activity in formalin-induced pain hypersensitivity in ip dosed rat. It is filed as functional.
For data set [9], the system named is Rattus norvegicus. Kind of data set: Analgesic activity in SNL nerve injury in iv dosed rat model. It is filed as functional. Particulars: for minimal effective dose: Rattus norvegicus, iv, read-out: MED.
For data set [10], the species on record is Rattus norvegicus. In words: Analgesic activity in streptozotocin-induced diabetic rat model of pain. It is filed as functional. Particulars: read-out: MED.
Data set [11] has as its system Rattus norvegicus. Kind of data set: Analgesic activity in carrageenan model in po dosed rat model. Particulars: read-out: MED. Type of data set: functional.
Data set [12] relates to Rattus norvegicus. In words: Analgesic activity in SNL nerve injury in po dosed rat model. It is filed as functional.

Each structure is given as a SMILES string.

Sequence of Potassium voltage-gated channel subfamily KQT member 2 (O43526 whole entry): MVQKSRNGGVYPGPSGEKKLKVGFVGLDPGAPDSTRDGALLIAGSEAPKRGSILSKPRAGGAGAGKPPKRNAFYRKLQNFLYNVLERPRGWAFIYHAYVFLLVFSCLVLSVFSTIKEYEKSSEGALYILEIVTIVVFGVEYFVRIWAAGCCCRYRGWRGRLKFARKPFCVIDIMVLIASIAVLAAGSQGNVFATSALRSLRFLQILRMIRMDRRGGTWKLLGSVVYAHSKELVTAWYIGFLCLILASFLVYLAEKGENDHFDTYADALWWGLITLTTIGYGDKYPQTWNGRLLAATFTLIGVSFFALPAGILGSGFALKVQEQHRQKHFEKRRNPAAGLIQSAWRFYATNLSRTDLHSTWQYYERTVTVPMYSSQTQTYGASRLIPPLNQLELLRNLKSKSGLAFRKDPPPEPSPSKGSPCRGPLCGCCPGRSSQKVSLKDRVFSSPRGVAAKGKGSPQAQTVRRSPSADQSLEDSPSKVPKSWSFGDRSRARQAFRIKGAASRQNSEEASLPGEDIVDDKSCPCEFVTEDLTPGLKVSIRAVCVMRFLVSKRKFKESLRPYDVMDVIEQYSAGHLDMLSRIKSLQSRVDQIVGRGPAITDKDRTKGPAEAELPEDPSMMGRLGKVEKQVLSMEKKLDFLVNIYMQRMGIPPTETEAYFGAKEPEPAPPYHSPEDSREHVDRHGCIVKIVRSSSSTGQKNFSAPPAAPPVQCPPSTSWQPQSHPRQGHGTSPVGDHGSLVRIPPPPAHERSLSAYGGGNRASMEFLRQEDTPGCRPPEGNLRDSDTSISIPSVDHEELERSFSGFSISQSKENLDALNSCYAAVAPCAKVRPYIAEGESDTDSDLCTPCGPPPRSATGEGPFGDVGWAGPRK

Regarding `CCOC(=O)Nc1ccc(NCc2ccc(F)cc2)cc1N` [EZOGABINE], the ED50 in data set [1] is 47.6 mg/kg; in [5] it was 40 mg/kg; in data set [8], 6.6 mg/kg. Further, in data set [2], the minimal effective dose was determined as 10 mg/kg. Moreover, the EC50 was 1 µM in data set [3] and below 0.15 µM in [4]. Also, the selectivity ratio in data set [6] came to 4; in [7], 1.6.
`C[C@H](NC(=O)/C=C/c1ccc(F)cc1)c1ccc(F)c(N2CCOCC2)c1`: the minimal effective dose in data set [9] and in data set [10] was 10 mg/kg throughout.
For `C[C@H](NC(=O)/C=C/c1ccccc1F)c1cccc(-n2cccn2)c1`, in [9], the minimal effective dose came out at 10 mg/kg.
The same measure, in the same setting: then `C[C@H](NC(=O)/C=C/c1ccccc1F)c1cccc(Oc2cccnc2)c1`, with 10 mg/kg.
Turning to `CC(NC(=O)c1sc(-c2ccccc2F)nc1C(F)(F)F)c1cccc(-c2cccc(OC(F)(F)F)c2)c1` (stereo unspecified), in data set [9], the MED was found to be 10 mg/kg and the minimal effective dose is 10 mg/kg.
For `O=C(Nc1ccc(Cl)nc1)c1ccc(F)c(F)c1`, the minimal effective dose in [11] amounted to 30 mg/kg. In data set [12], this compound yielded an ED50 of 25 mg/kg.
